In brackets after ≈: the same amount, converted by molar mass.
Tested on: Clostridium perfringens

CS(=O)(=O)c1ccc([C@@H](O)[C@@H](CF)NC(=O)C(Cl)Cl)cc1 [FLORFENICOL]
MIC: 16 µg/mL (≈ 44.7 µM)

CC(=O)NC[C@H]1CN(c2ccc(N3CCOCC3)c(F)c2)C(=O)O1 [LINEZOLID]
MIC: 64 µg/mL (≈ 190 µM)

Reference: ChEMBL document CHEMBL1240402 (2010)
